# Patent US20220168295A1, “RIMEGEPANT FOR CGRP RELATED DISORDERS” (Biohaven Pharmaceutical Ireland DAC, priority 2018, published 2022)
# Key:
# [1] = system: subjects with Acute Migraines; assay: Study 301 (BHV3000-301) Phase 3 placebo-controlled trial, rimegepant 75 mg tablet, acute treatment of migraine: efficacy and safety; type: in vivo, human
# Method: Clinical Trial—BHV3000-301: Phase 3: Double-Blind, Randomized, Placebo-Controlled, Safety and Efficacy Trial of BHV-3000 (Rimegepant) for the Acute Treatment of Migraine (ClinicalTrials.gov Identifier: NCT03235479). A phase 3 clinical study was conducted with 1490 participants, as follows. The purpose of this study was to compare the efficacy of BHV-3000 (rimegepant) versus placebo in subjects with Acute Migraines • Study Type: Interventional (Clinical Trial) • Actual Enrollment: 1490 participants • Allocation: Randomized • Intervention Model: Parallel Assignment • Intervention Model Description: Double-blind to Sponsor, Investigator and Subject Randomized Controlled Trial • Masking: Triple (Participant, Care Provider, Investigator) • Masking Description: Double-blind to Sponsor, Investigator and Subject • Primary Purpose: Treatment • Official Title: BHV3000-301: Phase 3: Double-Blind, Randomized, Placebo-Controlled, Safety and Efficacy Trial of BHV-3000 (Rimegepant) for the Acute Treatment of Migraine [table] • 1. Pain freedom of rimegepant (75 mg tablet) compared with placebo in the acute treatment of migraine will be measured using the number of evaluable subjects that report no pain at 2 hours post-dose. [Time Frame: Two hours post dose] • Pain will be measured on a 4 point Likert scale (0=none, 1=mild, 2=moderate, 3=severe) • 2. Freedom from the most bothersome symptom (MBS) of rimegepant (75 mg tablet) compared with placebo will be measured using the number of evaluable subjects that report the absence of their MBS at 2 hours post-dose. [Time Frame: Two hours post dose] • The MBS (nausea, phonophobia or photophobia) will measured using a binary scale (0=absent, 1=present). • 1. […] [Time Frame: 2 hours −24 hours post-dose] • Sustained Pain Freedom as measured by a 4 point numeric rating scale (None, Mild, Moderate, Severe) • 2. The difference between rimegepant (75 mg tablet) compared to placebo by tabulating the absence of photophobia at 2 hours post-dose in the subset of subjects that reported the presence of photophobia at headache baseline. [Time Frame: 2 hours post-dose] • Photophobia • 3. To evaluate rimegepant (75 mg tablet) compared to placebo by tabulating the number of subjects that report the absence of phonophobia at 2 hours post-dose in the subset of subjects that reported the presence of phonophobia at headache baseline. [Time Frame: 2 hours post-dose] • Phonophobia • 4. To measure the difference between rimegepant (75 mg tablet) compared to placebo on Pain Relief, at 2 hours post-dose, for those that report a pain level of moderate or severe at baseline and then report a pain level of none or mild. [Time Frame: 2 hours post-dose] • Pain Relief as measured by a 4 point numeric rating scale (None, Mild, Moderate, Severe) • 5. Freedom from Nausea by tabulating the number of subjects that report the absence of nausea at 2 hours post-dose in the subset of subjects that reported the presence of nausea at headache baseline. [Time Frame: 2 hours post-dose] • Freedom from Nausea • 6. The difference between rimegepant (75 mg tablet) compared to placebo on the probability of requiring rescue medication using the number of subjects that take rescue medication within […] administration of study medication (BHV3000 or placebo). [Time Frame: up to 24 hours post-dose] • Requiring Rescue Medication • 7. […] [Time Frame: 2 hours-24 hours post-dose] • Sustained Pain Freedom • 8. […] [Time Frame: 2 hours-24 hours post-dose] • Sustained Pain Relief as measured by a 4 point numeric rating scale (None, Mild, Moderate, Severe) • 9. […] [Time Frame: 2 hours-48 hours post-dose] • Sustained Pain Relief as measured by a 4 point numeric rating scale (None, Mild, Moderate, Severe) • 10. To measure the difference between rimegepant (75 mg tablet) relative to placebo on the proportion of subjects able to function normally, at 2 hours, using the number of subjects that self-report as “normal” on the functional disability scale. […]
# patients with migraine = assay: Study 201 (BHV3000-201) open label long-term safety study, rimegepant 75 mg oral tablet, acute treatment of migraine; type: in vivo, human; settings: for >= 20.0% decrease in migraines (headache days) per month, subjects n (%) / >= 25.0% decrease in migraines (headache days) per month, subjects n (%) / >= 30.0% decrease in migraines (headache days) per month, subjects n (%) / >= 35.0% decrease in migraines (headache days) per month, subjects n (%) / >= 40.0% decrease in migraines (headache days) per month, subjects n (%) / >= 45.0% decrease in migraines (headache days) per month, subjects n (%) / >= 50.0% decrease in migraines (headache days) per month, subjects n (%): Study 201, Overall, n 1731
# Method: Clinical Trial-BHV3000-201: Open Label Safety Study in Acute Treatment of Migraine (ClinicalTrials.gov Identifier: NCT 03266588) A phase 2/3 clinical study is conducted with about 2000 participants, as follows. The purpose of this study is to evaluate safety and tolerability of BHV3000 (rimegepant). • Study Type: Interventional (Clinical Trial) • Estimated Enrollment: 2000 participants • Intervention Model: Single Group Assignment • Masking: None (Open Label) • Primary Purpose: Treatment • Official Title: A Multicenter, Open Label Long-Term Safety Study of BHV3000 in the Acute Treatment of Migraine • Actual Study Start Date: Aug. 30, 2017 • Estimated Primary Completion Date: July 2019 • Estimated Study Completion Date: July 2019 [table] 1. To assess the safety and tolerability of rimegepant (BHV-3000) by measuring the frequency and severity of adverse events and discontinuations due to adverse events [Time Frame: 52 weeks] Number of subjects with treatment-emergent adverse events as assessed through laboratory tests, ECGs, physical exam findings (safety and tolerability) 1. ALT or […] with total bilirubin >2×ULN [Time Frame: 52 weeks] elevated liver function tests 2. hepatic related adverse events and hepatic related adverse events that lead to discontinuation [Time Frame: 52 weeks] adverse events related to liver
compound,measurement,setting,value
"N[C@@H]1c2cccnc2[C@H](OC(=O)N2CCC(n3c(=O)[nH]c4ncccc43)CC2)CC[C@H]1c1cccc(F)c1F [Rimegepant, [(5S,6S,9R)-5-amino-6-(2,3-difluorophenyl)-6,7,8,9-tetrahydro-5H-cyclohepta[b]pyridin-9-yl] 4-(2-oxo-3H-imidazo[4,5-b]pyridin-1-yl)piperidine-1-carboxylate]",SAEs related to the study drug,[1],No SAE was determined to be related to the study drug
same,"Transaminase level >5 times ULN, subjects",[1],no subject
same,"Adverse event dizziness, incidence",[1]; 4/546,0.7%
same,"Adverse event nausea, incidence",[1]; 5/546,0.9%
same,"Serum ALT or AST levels greater than ULN, subjects",[1]; 11/546,2.0%
same,Proportion of patients achieving normal function at 2 hours (functional disability) versus placebo,[1]; P<0.0001,greater proportion
same,"Serious AEs (SAEs), subjects","[1]; n=2, both not dosed before onset",0.4%
same,"Transaminase level >3 times ULN, subjects",[1]; one subject,0.2%
same,">= 20.0% decrease in migraines (headache days) per month, subjects n (%)",patients with migraine,683 (39.5%) n (%)
same,">= 25.0% decrease in migraines (headache days) per month, subjects n (%)",patients with migraine,602 (34.8%) n (%)
same,">= 30.0% decrease in migraines (headache days) per month, subjects n (%)",patients with migraine,523 (30.2%) n (%)
same,">= 35.0% decrease in migraines (headache days) per month, subjects n (%)",patients with migraine,442 (25.5%) n (%)
same,">= 40.0% decrease in migraines (headache days) per month, subjects n (%)",patients with migraine,362 (20.9%) n (%)
same,">= 45.0% decrease in migraines (headache days) per month, subjects n (%)",patients with migraine,287 (16.6%) n (%)
same,">= 50.0% decrease in migraines (headache days) per month, subjects n (%)",patients with migraine,226 (13.1%) n (%)
same,">= 20.0% decrease in migraines (headache days) per month, subjects n (%)",patients with migraine; listed as BHV-3000,683 (39.5) n (%)
same,">= 25.0% decrease in migraines (headache days) per month, subjects n (%)",patients with migraine; listed as BHV-3000,602 (34.8) n (%)
same,">= 30.0% decrease in migraines (headache days) per month, subjects n (%)",patients with migraine; listed as BHV-3000,523 (30.2) n (%)
same,">= 35.0% decrease in migraines (headache days) per month, subjects n (%)",patients with migraine; listed as BHV-3000,442 (25.5) n (%)
same,">= 40.0% decrease in migraines (headache days) per month, subjects n (%)",patients with migraine; listed as BHV-3000,362 (20.9) n (%)
same,">= 45.0% decrease in migraines (headache days) per month, subjects n (%)",patients with migraine; listed as BHV-3000,287 (16.6) n (%)
same,">= 50.0% decrease in migraines (headache days) per month, subjects n (%)",patients with migraine; listed as BHV-3000,226 (13.1) n (%)
same,Incidence of serum ALT or AST >3xULN,"patients with migraine; Study 201 interim analysis, 75 mg up to once daily, long-term",1.0%
same,Liver safety signal,"patients with migraine; Study 201 interim analysis, including near-daily dosing subset",no liver safety signal detected
same,Liver cases assessed as probably related to study drug,"patients with migraine; Study 201 interim analysis, independent liver panel",no liver cases
